The target in one assay is T1, Human Factor XIIa (Homo sapiens, UniProt P00748).
T1 construct: purchased Enzyme Research Laboratories
T1 sequence (P00748 373-615 limits assumed): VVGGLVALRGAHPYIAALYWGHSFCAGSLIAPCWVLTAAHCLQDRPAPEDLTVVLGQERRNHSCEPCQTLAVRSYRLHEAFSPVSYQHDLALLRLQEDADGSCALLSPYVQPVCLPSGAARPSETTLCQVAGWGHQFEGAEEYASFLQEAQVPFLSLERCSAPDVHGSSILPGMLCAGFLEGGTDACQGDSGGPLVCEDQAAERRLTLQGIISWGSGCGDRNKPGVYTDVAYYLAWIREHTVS
As to the kind of experiment: Factor XIIa inhibitory activity in vitro (fluorogenic substrate H-DPro-Phe-Arg-AFC). The class given is biochemical. Conditions: 25° C., class symbols, read-out: Human FXIIa IC50. On the procedure:
Determination of the % Inhibition for FXIIa
Human Factor XIIa (Enzyme Research Laboratories) was incubated at 25° C. with the fluorogenic substrate H-DPro-Phe-Arg-AFC and various concentrations of the test compound. Residual enzyme activity (initial rate of reaction) was determined by measuring the change in […] at 410 nm and the IC50 value for the test compound was determined.
Turning to `CCOCCC(=O)N[C@@H](Cc1ccc(F)c(F)c1)C(=O)NCc1ccc2c(N)nccc2c1` [Example 20.04], the IC50 (commonly the concentration needed to halve the response being measured) was in the range of 10 to 40 µM.

For `CC1(C)CCCN1CC(=O)N[C@@H](Cc1ccc(F)c(F)c1)C(=O)NCc1ccc2c(N)nccc2c1` [Example 3.18], the concentration for half-maximal inhibition (IC50) fell in the range of 0.28 to 1 µM.

On to `N#Cc1ccccc1CN[C@@H](Cc1ccc(F)c(F)c1)C(=O)NCc1ccc2c(N)nccc2c1` [Example 55.03], for which the IC50 was in the range of 10 to 40 µM. As to `Nc1nccc2cc(CNC(=O)[C@H](Cc3ccc(F)c(F)c3)NC(=O)CN3CCCC3)ccc12` [Example 3.41], the IC50 fell in the range of 1 to 3 µM.

With `Nc1nccc2cc(CNC(=O)[C@H](Cc3ccc(F)c(F)c3)NC(=O)c3c[nH]nc3C3CC3)ccc12` [Example 0.61], the IC50 is 10 to 40 µM. Regarding `CC[C@H](NC(=O)[C@H](N)CCc1ccccc1)C(=O)NCc1ccc2c(N)nccc2c1` [Example 6.05], the IC50 lay in the range of 1 to 3 µM. On the same count and under the same terms, with `Nc1nccc2cc(CNC(=O)[C@H](Cc3ccc(F)c(F)c3)NC(=O)c3ccccc3N3CCOCC3)ccc12` [Example 0.04] the figure was 10 to 40 µM. Same read-out and setting: the same measure for `Nc1nccc2cc(CNC(=O)[C@H](Cc3ccc(F)c(F)c3)NC(=O)c3cscn3)ccc12` [Example 0.33]: 3 to 10 µM; for `CC(C)N1CCC[C@@H]1C(=O)N[C@@H](Cc1ccc(F)c(F)c1)C(=O)NCc1ccc2[nH]ncc2c1` [Example 44.05]: 10 to 40 µM. Consider `CCC(C)[C@H](C(=O)NCC(=O)NCc1ccc2c(N)nccc2c1)N(C)C` (stereo partly shown) [Example 18.103], for which the IC50 was in the range of 10 to 40 µM. Same read-out and setting: the same measure for `COc1cnccc1C(=O)N[C@@H](Cc1ccc(F)c(F)c1)C(=O)NCc1ccc2c(N)nccc2c1` [Example 0.84]: 10 to 40 µM. The same measure, in the same setting: the same measure for `Nc1nccc2cc(CNC(=O)[C@H](Cc3ccc(F)c(F)c3)NC(=O)C3(C(F)(F)F)CC3)ccc12` [Example 0.72]: 10 to 40 µM; for `CC(C)(C)OC(=O)N[C@H](CCc1ccccc1)C(=O)NCC(=O)NCc1ccc2c(N)nccc2c1` [Example 6.01]: 10 to 40 µM. The same measure, in the same setting: with `Nc1nccc2cc(CNC(=O)[C@H](Cc3ccc(F)c(F)c3)NC(=O)c3cn[nH]c3)ccc12` [Example 0.65] the figure was 10 to 40 µM; with `Cn1cncc1C(=O)N[C@@H](Cc1ccc(F)c(F)c1)C(=O)NCc1ccc2c(N)nccc2c1` [Example 0.69], 10 to 40 µM.

Consider `C[C@H](NC(=O)[C@@H](CCc1ccccc1)NCC(C)(C)C)C(=O)NCc1cnc2[nH]cc(Cl)c2c1` [Example 9.26], for which the IC50 lay in the range of 3 to 10 µM. Regarding `Cc1ccc(CN(C)CC(=O)N[C@@H](Cc2ccc(F)c(F)c2)C(=O)NCc2ccc3c(N)nccc3c2)cc1` [Example 3.27], the IC50 lay within 10 to 40 µM. Same read-out and setting: the same measure for `C[C@@H]1CCC[C@H](C)N1CC(=O)N[C@@H](Cc1ccc(F)c(F)c1)C(=O)NCc1cnc2[nH]ccc2c1` [Example 34.06]: 3 to 10 µM; for `COc1ccc(OCCC(=O)N[C@@H](Cc2ccc(F)c(F)c2)C(=O)NCc2ccc3c(N)nccc3c2)cc1` [Example 20.01]: 10 to 40 µM. Same read-out and setting: the same measure for `CC(C)c1cc(C(=O)N[C@@H](Cc2ccc(F)c(F)c2)C(=O)NCc2ccc3c(N)nccc3c2)no1` [Example 0.75]: 3 to 10 µM; for `CN(C)C(C)(C)C(=O)N[C@@H](Cc1ccc(F)c(F)c1)C(=O)NCc1ccc2c(N)nccc2c1` [Example 0.86]: 1 to 3 µM. Still for that read-out and setting: with `Nc1nccc2cc(CNC(=O)[C@@H](N)Cc3cccc(F)c3)ccc12` [Example 24.02] the figure was 10 to 40 µM; with `CCCCOCC(=O)N[C@@H](Cc1ccc(F)c(F)c1)C(=O)NCc1ccc2c(N)nccc2c1` [Example 3.30], 10 to 40 µM.

Regarding `Cc1cnc(C(=O)N[C@@H](Cc2ccc(F)c(F)c2)C(=O)NCc2ccc3c(N)nccc3c2)cn1` [Example 0.22], the IC50 fell in the range of 3 to 10 µM. On the same count and under the same terms, with `Nc1nccc2cc(CNC(=O)[C@H](Cc3ccc(F)c(F)c3)NC(=O)C3CCC(O)CC3)ccc12` (stereo partly shown) [Example 0.56] the figure was 10 to 40 µM. On the same count and under the same terms, the same measure for `C[C@@H]1CCC[C@H](C)N1CC(=O)N[C@H](Cc1ccc(F)c(F)c1)C(=O)NCc1ccc2c(N)nccc2c1` [Example 3.17]: 1 to 3 µM; for `Nc1nccc2cc(CNC(=O)[C@H](Cc3ccc(F)c(F)c3)NC(=O)CN3CCOCC3)ccc12` [Example 3.07]: 10 to 40 µM.

Turning to `Nc1nccc2cc(CNC(=O)[C@H](Cc3ccc(F)c(F)c3)NC(=O)Cc3ccsc3)ccc12` [Example 3.26], the 50% inhibitory concentration (IC50) fell in the range of 10 to 40 µM.

Consider `Nc1nccc2cc(CNC(=O)CNC(=O)[C@@H](CCc3ccccc3)NS(=O)(=O)Cc3ccccc3)ccc12` [Example 18.102], for which the IC50 fell in the range of 1 to 3 µM.

Regarding `C[C@@H]1CCC[C@H](C)N1CC(=O)N[C@@H](Cc1ccc(F)c(F)c1)C(=O)NCc1ccc2c(cnn2C)c1` [Example 34.08], the IC50 was 10 to 40 µM.

As to `COc1cc(C(=O)N[C@@H](Cc2ccc(F)c(F)c2)C(=O)NCc2ccc3c(N)nccc3c2)on1` [Example 0.32], the IC50 lay in the range of 3 to 10 µM.

`CN(C)[C@H](CCc1ccccc1)C(=O)NCC(=O)NCc1ccc2c(N)nccc2c1` [Example 18.104]: the IC50 lay within 1 to 3 µM. Regarding `Nc1nccc2cc(CNC(=O)[C@H](Cc3ccc(F)c(F)c3)NC(=O)c3cc4ccccc4[nH]3)ccc12` [Example 0.85], the IC50 lay within 10 to 40 µM. Still for that read-out and setting: the same measure for `C[C@@H]1CCC[C@H](C)N1CC(=O)N[C@@H](Cc1c[nH]c2ccccc12)C(=O)NCc1ccc2c(N)nccc2c1` [Example 3.21]: 0.1 to 0.279 µM. Still for that read-out and setting: with `CC(C)(O)CC(=O)N[C@@H](Cc1ccc(F)c(F)c1)C(=O)NCc1ccc2c(N)nccc2c1` [Example 3.28] the figure was 10 to 40 µM; with `Cc1cc(C(=O)N[C@@H](Cc2ccc(F)c(F)c2)C(=O)NCc2ccc3c(N)nccc3c2)n[nH]1` [Example 0.14], 3 to 10 µM. Take `C[C@@H]1CCC[C@H](C)N1CC(=O)N[C@@H](Cc1cccc(Cl)c1)C(=O)NCc1ccc2c(N)nccc2c1` [Example 3.13]: the IC50 was 0.1 to 0.279 µM. With `CC(C)N1CCC[C@@H]1C(=O)N[C@@H](Cc1ccc(F)c(F)c1)C(=O)NCc1ccc2c(N)nccc2c1` [Example 44.01], the IC50 is 0.28 to 1 µM. The same measure, in the same setting: with `Nc1nccc2cc(CNC(=O)[C@H](Cc3ccc(F)c(F)c3)NC(=O)c3cccs3)ccc12` [Example 0.82] the figure was 10 to 40 µM. The same measure, in the same setting: with `N[C@H](CCCCN1CCOCC1)C(=O)N1CC[C@H]1C(=O)NCc1ccc2[nH]cc(Cl)c2c1` [Example 10.19] the figure was 3 to 10 µM.

On to `C[C@H]1CC[C@H](C)N1CC(=O)N[C@@H](Cc1ccc(F)c(F)c1)C(=O)NCc1ccc2c(N)nccc2c1` [Example 3.19], for which the IC50 was in the range of 0.28 to 1 µM. Same read-out and setting: the same measure for `Nc1nccc2cc(CNC(=O)[C@H](Cc3ccc(F)c(F)c3)NC(=O)c3nccc4ccccc34)ccc12` [Example 0.80]: 10 to 40 µM; for `Nc1nccc2cc(CNC(=O)[C@H](Cc3ccc(F)c(F)c3)NC(=O)Cc3ccccn3)ccc12` [Example 3.34]: 10 to 40 µM.

On to `CC(C)N1CCCC[C@@H]1C(=O)N[C@@H](Cc1ccc(F)c(F)c1)C(=O)NCc1ccc2c(N)nccc2c1` [Example 0.02], for which the IC50 lay in the range of 0.1 to 0.279 µM.

Still in this assay, the particulars now being: 25° C., numeric bound instead of class symbol, read-out: Human FXIIa IC50.
As for `Cc1nc(C(F)(F)F)ccc1C(=O)N[C@@H](Cc1ccc(F)c(F)c1)C(=O)NCc1ccc2c(N)nccc2c1` [Example 0.63], the concentration for half-maximal inhibition (IC50) is over 12.7 µM. The same measure, in the same setting: the same measure for `Cc1ccnn1-c1ccc(C(=O)N[C@@H](Cc2ccc(F)c(F)c2)C(=O)NCc2ccc3c(N)nccc3c2)cc1` [Example 0.83]: over 12.7 µM.
